Experimental findings from PubChem BioAssay (NCI) are described below.

“And” between values parts separate entries of the source, which are not always exact repeats. Equal values may be shown once.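 In this assay, cells in 96-well plates receive the compound at five concentrations for 48 hours. Endpoints are linearly interpolated between the surrounding concentrations. GI50 marks 50% less growth. TGI marks complete inhibition of growth.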

The subject of one assay is SNB-75 CNS. The assay can be described thus: inhibition of tumour cell growth, NCI panel, 48 h.
For the compound `CC1(C)OC2COC3(CNO)OC(C)(C)OC3C2O1` (stereo not given), the TGI was above 100 µM.

In turn, `CCOC(=O)C(=O)Nc1ccccc1C(F)(F)F` showed a TGI above 100 µM.

In turn, `Cc1ccccc1Nc1nc2c(s1)C(=O)c1ccccc1C2=O` gave a TGI of 29.9 µM.

Compound `Cc1nnc(N/N=C(/C(=O)C(C#N)c2ccccc2)C(C#N)c2ccccc2)n1N` (stereo not given) registered a TGI of 34.7 µM.

For `COc1c(Br)cc(Br)c(OC)c1-c1[nH]c(Br)c(Br)c1Br`, the TGI is 17.6 µM.

On to `COc1ccc(/C=C2/CCc3cc4ccc(OC)cc4[o+]c32)c(O)c1`, for which the GI50 is 12.9 µM and the TGI worked out at 27.9 µM.

On to `OB1OCc2cc(/C=C/c3cccc(C(F)(F)F)c3)ccc21`, for which the GI50 is 0.852 µM and the TGI is 6.2 µM.

In turn, `CCOC(=O)c1ccc(N[C@@H]2c3cc4c(cc3C(C3=CC(=O)C(=O)C(OC)=C3)[C@H]3C(=O)OCC32)OCO4)cc1` (stereo not given in full) came in with a TGI of 9.04 µM.

`CNC(SC)=C1C(=O)OC(C)(C)OC1=O` displayed a TGI above 100 µM.

The compound `CC(=O)NNc1nc(C)c(C(=O)NNC(=O)C(=O)Nc2nc3ccc([N+](=O)[O-])cc3s2)s1` registered a TGI above 100 µM.

For `O=C(/C=C/c1ccccc1)CC(c1ccccc1)N1CCOCC1` (stereo not given), the GI50 is 12.5 µM and the TGI was determined as 27.7 µM.

Take `Cc1nc(Nc2n[nH]c3c2CN(C(=O)N[C@H](CN(C)C)c2ccccc2)C3(C)C)c2sccc2n1`: the GI50 is 0.206 µM and 0.284 µM; the TGI was 2.23 µM and 2.82 µM.

Take `CC(=O)OC1COC(n2c(=S)n(-c3ccccc3)c(=O)c3cc(Br)ccc32)C(OC(C)=O)C1OC(C)=O` (stereo not given): the TGI was determined as 30.6 µM.

Turning to `CC1=C(C(=O)Nc2ccccc2C)C(/C=C/c2ccccc2)C(C(=O)Nc2ccccc2C)=C(C)N1`, the TGI is above 100 µM.

As for `COc1cc2cnc3c4ccccc4ccc3c2cc1OC`, the TGI was above 100 µM.

`O=S(=O)(CCOCc1ccc(-c2ccc3ncnc(Nc4ccc(OCc5cccc(F)c5)c(Cl)c4)c3c2)o1)c1ccccc1`: the GI50 was above 25 µM and the TGI is above 25 µM.

A further assay relates to EKVX NSCLC. Kind of assay: inhibition of tumour cell growth, NCI panel, 48 h.
With `CC1(C)OC2COC3(CNO)OC(C)(C)OC3C2O1` (stereo not given), the TGI is above 100 µM.

As for `CCOC(=O)C(=O)Nc1ccccc1C(F)(F)F`, the TGI is above 100 µM.

The compound `Cc1ccccc1Nc1nc2c(s1)C(=O)c1ccccc1C2=O` returned a TGI of 21 µM.

In turn, `Cc1nnc(N/N=C(/C(=O)C(C#N)c2ccccc2)C(C#N)c2ccccc2)n1N` (stereo not given) displayed a TGI above 100 µM.

Regarding `COc1c(Br)cc(Br)c(OC)c1-c1[nH]c(Br)c(Br)c1Br`, the TGI was determined as 21.1 µM.

With `COc1ccc(/C=C2/CCc3cc4ccc(OC)cc4[o+]c32)c(O)c1`, the GI50 was 12.5 µM and the TGI is 26.8 µM.

Consider `OB1OCc2cc(/C=C/c3cccc(C(F)(F)F)c3)ccc21`, for which the GI50 is 3.65 µM and the TGI was above 100 µM.

For the compound `CCOC(=O)c1ccc(N[C@@H]2c3cc4c(cc3C(C3=CC(=O)C(=O)C(OC)=C3)[C@H]3C(=O)OCC32)OCO4)cc1` (stereo not given in full), the TGI turned out to be 26.3 µM.

The compound `CNC(SC)=C1C(=O)OC(C)(C)OC1=O` gave a TGI above 100 µM.

On to `CC(=O)NNc1nc(C)c(C(=O)NNC(=O)C(=O)Nc2nc3ccc([N+](=O)[O-])cc3s2)s1`, for which the TGI was above 100 µM.

As to `O=C(/C=C/c1ccccc1)CC(c1ccccc1)N1CCOCC1` (stereo not given), the GI50 was 9.52 µM and the TGI was determined as 22.3 µM.

For `Cc1nc(Nc2n[nH]c3c2CN(C(=O)N[C@H](CN(C)C)c2ccccc2)C3(C)C)c2sccc2n1`, the GI50 was 0.0907 µM and 0.14 µM; the TGI was > 8.27 µM and 23.6 µM.

For the compound `CC(=O)OC1COC(n2c(=S)n(-c3ccccc3)c(=O)c3cc(Br)ccc32)C(OC(C)=O)C1OC(C)=O` (stereo not given), the TGI is above 100 µM.

As for `CC1=C(C(=O)Nc2ccccc2C)C(/C=C/c2ccccc2)C(C(=O)Nc2ccccc2C)=C(C)N1`, the TGI was above 100 µM.

In turn, `COc1cc2cnc3c4ccccc4ccc3c2cc1OC` returned a TGI above 100 µM.

For `O=S(=O)(CCOCc1ccc(-c2ccc3ncnc(Nc4ccc(OCc5cccc(F)c5)c(Cl)c4)c3c2)o1)c1ccccc1`, the GI50 was 0.754 µM and the TGI is above 25 µM.

The next assay concerns OVCAR-3 ovarian. Kind of assay: inhibition of tumour cell growth, NCI panel, 48 h.
As to `CC1(C)OC2COC3(CNO)OC(C)(C)OC3C2O1` (stereo not given), the TGI is above 100 µM.

In turn, `CCOC(=O)C(=O)Nc1ccccc1C(F)(F)F` displayed a TGI above 100 µM.

As for `Cc1ccccc1Nc1nc2c(s1)C(=O)c1ccccc1C2=O`, the TGI came to 5.31 µM.

Turning to `Cc1nnc(N/N=C(/C(=O)C(C#N)c2ccccc2)C(C#N)c2ccccc2)n1N` (stereo not given), the TGI is 53.3 µM.

The compound `COc1c(Br)cc(Br)c(OC)c1-c1[nH]c(Br)c(Br)c1Br` showed a TGI of 14.3 µM.

For the compound `COc1ccc(/C=C2/CCc3cc4ccc(OC)cc4[o+]c32)c(O)c1`, the GI50 is 2.48 µM and the TGI came to 6.09 µM.

With `OB1OCc2cc(/C=C/c3cccc(C(F)(F)F)c3)ccc21`, the GI50 was 1.37 µM and the TGI came to 17.8 µM.

Regarding `CCOC(=O)c1ccc(N[C@@H]2c3cc4c(cc3C(C3=CC(=O)C(=O)C(OC)=C3)[C@H]3C(=O)OCC32)OCO4)cc1` (stereo not given in full), the TGI worked out at 31.7 µM.

The compound `CNC(SC)=C1C(=O)OC(C)(C)OC1=O` gave a TGI above 100 µM.

Turning to `CC(=O)NNc1nc(C)c(C(=O)NNC(=O)C(=O)Nc2nc3ccc([N+](=O)[O-])cc3s2)s1`, the TGI came to 76.4 µM.

Turning to `O=C(/C=C/c1ccccc1)CC(c1ccccc1)N1CCOCC1` (stereo not given), the GI50 was 3.71 µM and the TGI came to 11.6 µM.

As for `Cc1nc(Nc2n[nH]c3c2CN(C(=O)N[C@H](CN(C)C)c2ccccc2)C3(C)C)c2sccc2n1`, the GI50 is 0.0255 µM and 0.0584 µM; the TGI is 1.57 µM and 7.36 µM.

Compound `CC(=O)OC1COC(n2c(=S)n(-c3ccccc3)c(=O)c3cc(Br)ccc32)C(OC(C)=O)C1OC(C)=O` (stereo not given) came in with a TGI above 100 µM.

On to `CC1=C(C(=O)Nc2ccccc2C)C(/C=C/c2ccccc2)C(C(=O)Nc2ccccc2C)=C(C)N1`, for which the TGI is above 100 µM.

`COc1cc2cnc3c4ccccc4ccc3c2cc1OC` gave a TGI above 100 µM.

With `O=S(=O)(CCOCc1ccc(-c2ccc3ncnc(Nc4ccc(OCc5cccc(F)c5)c(Cl)c4)c3c2)o1)c1ccccc1`, the GI50 was above 25 µM and the TGI was above 25 µM.

A further assay concerns SK-MEL-28 melanoma. The assay can be described thus: inhibition of tumour cell growth, NCI panel, 48 h.
The compound `CC1(C)OC2COC3(CNO)OC(C)(C)OC3C2O1` (stereo not given) displayed a TGI above 100 µM.

As to `CCOC(=O)C(=O)Nc1ccccc1C(F)(F)F`, the TGI was above 100 µM.

In turn, `Cc1ccccc1Nc1nc2c(s1)C(=O)c1ccccc1C2=O` yielded a TGI of 27.7 µM.

Take `Cc1nnc(N/N=C(/C(=O)C(C#N)c2ccccc2)C(C#N)c2ccccc2)n1N` (stereo not given): the TGI came out at 36.1 µM.

Consider `COc1c(Br)cc(Br)c(OC)c1-c1[nH]c(Br)c(Br)c1Br`, for which the TGI amounted to 20 µM.

For `COc1ccc(/C=C2/CCc3cc4ccc(OC)cc4[o+]c32)c(O)c1`, the GI50 is 2.3 µM and the TGI was 5.62 µM.

Turning to `OB1OCc2cc(/C=C/c3cccc(C(F)(F)F)c3)ccc21`, the GI50 is 18.8 µM and the TGI is above 100 µM.

`CCOC(=O)c1ccc(N[C@@H]2c3cc4c(cc3C(C3=CC(=O)C(=O)C(OC)=C3)[C@H]3C(=O)OCC32)OCO4)cc1` (stereo not given in full) had a TGI of 40.5 µM.

`CNC(SC)=C1C(=O)OC(C)(C)OC1=O` gave a TGI above 100 µM.

Compound `CC(=O)NNc1nc(C)c(C(=O)NNC(=O)C(=O)Nc2nc3ccc([N+](=O)[O-])cc3s2)s1` had a TGI above 100 µM.

In the case of `O=C(/C=C/c1ccccc1)CC(c1ccccc1)N1CCOCC1` (stereo not given), the GI50 is 13.8 µM and the TGI stood at 30 µM.

For the compound `Cc1nc(Nc2n[nH]c3c2CN(C(=O)N[C@H](CN(C)C)c2ccccc2)C3(C)C)c2sccc2n1`, the GI50 is 0.013 µM and < 0.01 µM; the TGI is 1.12 µM and 4.31 µM.

Turning to `CC(=O)OC1COC(n2c(=S)n(-c3ccccc3)c(=O)c3cc(Br)ccc32)C(OC(C)=O)C1OC(C)=O` (stereo not given), the TGI is above 100 µM.

The compound `CC1=C(C(=O)Nc2ccccc2C)C(/C=C/c2ccccc2)C(C(=O)Nc2ccccc2C)=C(C)N1` registered a TGI above 100 µM.

Regarding `COc1cc2cnc3c4ccccc4ccc3c2cc1OC`, the TGI is above 100 µM.

On to `O=S(=O)(CCOCc1ccc(-c2ccc3ncnc(Nc4ccc(OCc5cccc(F)c5)c(Cl)c4)c3c2)o1)c1ccccc1`, for which the GI50 is above 25 µM and the TGI is above 25 µM.

The next assay deals with HT29 colon. Kind of assay: inhibition of tumour cell growth, NCI panel, 48 h.
In turn, `CC1(C)OC2COC3(CNO)OC(C)(C)OC3C2O1` (stereo not given) registered a TGI above 100 µM.

Compound `CCOC(=O)C(=O)Nc1ccccc1C(F)(F)F` returned a TGI above 100 µM.

`Cc1ccccc1Nc1nc2c(s1)C(=O)c1ccccc1C2=O` registered a TGI of 40.7 µM.

As for `Cc1nnc(N/N=C(/C(=O)C(C#N)c2ccccc2)C(C#N)c2ccccc2)n1N` (stereo not given), the TGI is above 65.7 µM.

The compound `COc1c(Br)cc(Br)c(OC)c1-c1[nH]c(Br)c(Br)c1Br` yielded a TGI of 18.3 µM.

With `COc1ccc(/C=C2/CCc3cc4ccc(OC)cc4[o+]c32)c(O)c1`, the GI50 is 2.12 µM and the TGI amounted to 4.67 µM.

`OB1OCc2cc(/C=C/c3cccc(C(F)(F)F)c3)ccc21`: the GI50 was 1.44 µM and the TGI is above 100 µM.

As to `CCOC(=O)c1ccc(N[C@@H]2c3cc4c(cc3C(C3=CC(=O)C(=O)C(OC)=C3)[C@H]3C(=O)OCC32)OCO4)cc1` (stereo not given in full), the TGI was 18.2 µM.

`CNC(SC)=C1C(=O)OC(C)(C)OC1=O` showed a TGI above 100 µM.

As for `CC(=O)NNc1nc(C)c(C(=O)NNC(=O)C(=O)Nc2nc3ccc([N+](=O)[O-])cc3s2)s1`, the TGI is above 100 µM.

With `O=C(/C=C/c1ccccc1)CC(c1ccccc1)N1CCOCC1` (stereo not given), the GI50 was 3.7 µM and the TGI was found to be 16.7 µM.

As to `Cc1nc(Nc2n[nH]c3c2CN(C(=O)N[C@H](CN(C)C)c2ccccc2)C3(C)C)c2sccc2n1`, the GI50 is 0.0238 µM and 0.0313 µM; the TGI was 2.75 µM and 5.59 µM.

`CC(=O)OC1COC(n2c(=S)n(-c3ccccc3)c(=O)c3cc(Br)ccc32)C(OC(C)=O)C1OC(C)=O` (stereo not given) yielded a TGI above 100 µM.

Take `CC1=C(C(=O)Nc2ccccc2C)C(/C=C/c2ccccc2)C(C(=O)Nc2ccccc2C)=C(C)N1`: the TGI is above 100 µM.

`COc1cc2cnc3c4ccccc4ccc3c2cc1OC` returned a TGI above 100 µM.

Regarding `O=S(=O)(CCOCc1ccc(-c2ccc3ncnc(Nc4ccc(OCc5cccc(F)c5)c(Cl)c4)c3c2)o1)c1ccccc1`, the GI50 was above 25 µM and the TGI is above 25 µM.
